The structures appear in SMILES notation.

Assay [1] deals with A375 sensitive melanoma cells. Nature of the assay: In vivo murine cancer model, A375 sensitive xenograft. Particulars: 0.7 mg/mouse/day intraperitoneal. The arrangement: species or system BALB/c nu/nu (nude) mice. The procedure: Animal experiments were carried out in accordance with the Declaration of Helsinki and were approved by a local ethical committee CIEPAL (Comité Institutionnel d'Ethique Pour l'Animal de Laboratoire-Azur). Female immune-deficient BALB/c nu/nu (nude) mice were obtained at 5 weeks of age from Envigo Laboratory (Gannat, France). Nude mice were inoculated subcutaneously with A375 sensitive or resistant melanoma cells (1.0×10^6 cells/mouse). After tumor apparition (±5 days), animals received intraperitoneal injection of Labrafil (Control), PLX4032 (0.7 mg/mouse/day) or CRO15 (0.7 mg/mouse/day) dissolved in Labrafil. The growth tumor curves were determined by measuring the tumor volume using the equation V=(L*W2)/2 (V=tumor volume, W=tumor width, L=tumor length). At the end of the experiment, mice were euthanized by cervical dislocation and tumors were taken for western blot and immunofluorescence experiments (LC3, Cleaved Caspase 3). TUNEL assay was performed using the In Situ Cell Death Detection Kit (Roche, Meylan, France). The results are shown in FIGS. 3A and 3B (A375 sensitive melanoma cells), and 4B and 4C (A375 resistant melanoma cells).

A further assay concerns patient melanoma cells. Nature of the assay: Viability test with CRO15, patient melanoma cells. In kind it is cell-based, human. Particulars: 5 μM, 48 hours; FIG. 1D. The procedure: Fresh sterile tissues were obtained from surgical waste from patients diagnosed with metastatic melanoma at the Nice CHU hospital. Epidermal cell suspensions were obtained from foreskins of Caucasian children by overnight digestion in phosphate-buffered saline containing 0.5% dispase grade II at 4° C., followed by a 20 min digestion with 0.05% trypsin-0.02% EDTA in phosphate-buffered saline (V/V) at 37° C. Human primary melanocytes were grown in MCDB153 medium supplemented with 2% FCS, 0.4 μg/ml hydrocortisone, 5 μg/ml insulin, 16 nM phorbol-12 myristate 13-acetate, 1 ng/ml basic fibroblast growth factor, 10 μg/ml bovine pituitary extract and penicillin/streptomycin (100 U/ml/50 μg/ml). […]
For trypan blue staining, […] of cells (melanoma and normal human cells) were aseptically transferred to a 1.5 mL clear Eppendorf tube and incubated for 3 min at room temperature with an equal volume of 0.4% trypan blue solution. Viable cells were counted and the results are expressed as the percentage of the value of control cells. […]
Different melanoma cell lines with various mutations, patient cells with various mutations and normal human cells, were treated with 5 μM of CRO15 for 48 hours or DMSO (Control). At the end of stimulation, viable cells were counted using the trypan blue dye exclusion method. […]

On to `Nc1nc(Nc2ccccc2SSc2ccccc2Nc2nc(N)nc(C(Cl)(Cl)Cl)n2)nc(C(Cl)(Cl)Cl)n1` [CRO15, N2,N2′-(disulfanediylbis(2,1-phenylene))bis(6-(trichloromethyl)-1,3,5-triazine-2,4-diamine)], for which the tumor volume entry in assay [1] (FIG. 3A) is given as “reduces”. For the same compound, the tumor weight entry in assay [1] (FIG. 3B) is on record as “reduces”. Also, in the assay with patient melanoma cells, the “viability of patient melanoma cells” value is recorded as “induces a decrease of the viability”.

The values above are taken from patent publication US11440906B2, “Biguanide derivatives and their rearrangement products for use in the treatment of cancer” (CENTRE NATIONAL DE LA RECHERCHE SCIENTIFIQUE, priority 2017, dated 2022).
